Reference: PMC7841778 (ACS Omega, 2021)

Legend:
[1] = molecular target: T1, human pancreatic α-amylase (HPA) (Homo sapiens, UniProt P04746); experiment: ITC; assay type: binding
T1 sequence (P04746 16-511): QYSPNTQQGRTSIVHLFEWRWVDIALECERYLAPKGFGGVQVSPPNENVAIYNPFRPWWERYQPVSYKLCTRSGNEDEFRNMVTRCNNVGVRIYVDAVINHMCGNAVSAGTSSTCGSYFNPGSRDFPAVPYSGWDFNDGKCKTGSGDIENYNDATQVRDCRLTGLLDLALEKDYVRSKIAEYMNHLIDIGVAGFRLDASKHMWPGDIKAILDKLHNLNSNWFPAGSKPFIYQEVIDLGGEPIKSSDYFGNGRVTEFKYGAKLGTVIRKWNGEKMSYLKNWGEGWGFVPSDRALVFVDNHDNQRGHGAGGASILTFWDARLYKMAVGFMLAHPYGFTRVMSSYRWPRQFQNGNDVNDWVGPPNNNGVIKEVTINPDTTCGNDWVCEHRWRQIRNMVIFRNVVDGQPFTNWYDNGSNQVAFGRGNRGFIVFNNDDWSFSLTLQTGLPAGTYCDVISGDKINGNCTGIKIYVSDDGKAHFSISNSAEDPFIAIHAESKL

[2] = molecular target: T1, human pancreatic α-amylase (HPA); experiment: hydrolysis kinetics, KM; assay type: biochemical; settings: read-out: KM ^b

| Kd [1] | Km [2] | Structure (SMILES) |
| --- | --- | --- |
| 1970 nM |  | C=CCc1ccc(Oc2cc(CC=C)cc(OC)c2O)c(OC)c1 [DDEB, dehydrodieugenol B] |
|  | 132 ± 6.62 µM | OC[C@H]1O[C@H](O[C@H]2[C@H](O)[C@@H](O)[C@@H](O[C@H]3[C@H](O)[C@@H](O)[C@@H](O[C@H]4[C@H](O)[C@@H](O)[C@@H](O[C@H]5[C@H](O)[C@@H](O)C(O)O[C@@H]5CO)O[C@@H]4CO)O[C@@H]3CO)O[C@@H]2CO)[C@H](O)[C@@H](O)[C@@H]1O (some centres unmarked) [maltopentaose] |
